# Reference: PubChem BioAssay (NCI)
#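 Tested at 5 concentrations; 48 h exposure; 96-well plates; endpoints linearly interpolated, else capped at highest concentration. TGI marks complete inhibition of growth.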
# Legend:
# Assay in all cases: NCI-60 cell line screen, 48 h
# LOX IMVI melanoma = system: LOX IMVI melanoma
# HL-60(TB) leukemia = system: HL-60(TB) leukemia
# 786-0 renal = system: 786-0 renal
# HT29 colon = system: HT29 colon
# A549 NSCLC = system: A549 NSCLC
# UO-31 renal = system: UO-31 renal
# XF 498 CNS = system: XF 498 CNS
# RXF 393 renal = system: RXF 393 renal
# OVCAR-8 ovarian = system: OVCAR-8 ovarian
# A498 renal = system: A498 renal
# TK-10 renal = system: TK-10 renal
# UACC-62 melanoma = system: UACC-62 melanoma
# SK-MEL-5 melanoma = system: SK-MEL-5 melanoma
# KM20L2 colon = system: KM20L2 colon
# SK-MEL-2 melanoma = system: SK-MEL-2 melanoma
# K-562 leukemia = system: K-562 leukemia
# SF-539 CNS = system: SF-539 CNS
# U251 CNS = system: U251 CNS
# SNB-78 CNS = system: SNB-78 CNS
# LXFL 529 NSCLC = system: LXFL 529 NSCLC
# NCI-H23 lung = system: NCI-H23 lung
# OVCAR-3 ovarian = system: OVCAR-3 ovarian
# SNB-19 CNS = system: SNB-19 CNS
# DLD-1 colon = system: DLD-1 colon
# SF-295 CNS = system: SF-295 CNS
# KM12 colon = system: KM12 colon
# SNB-75 CNS = system: SNB-75 CNS
# HCT-116 colon = system: HCT-116 colon
# SR leukemia = system: SR leukemia
# RPMI-8226 leukemia = system: RPMI-8226 leukemia
# CCRF-CEM leukemia = system: CCRF-CEM leukemia
# MOLT-4 leukemia = system: MOLT-4 leukemia
# SK-OV-3 ovarian = system: SK-OV-3 ovarian
# M14 melanoma = system: M14 melanoma
# ACHN renal = system: ACHN renal
# HCT-15 colon = system: HCT-15 colon
# MALME-3M melanoma = system: MALME-3M melanoma
# SW-620 colon = system: SW-620 colon
# SN12C renal = system: SN12C renal
# NCI-H522 lung = system: NCI-H522 lung
# SF-268 CNS = system: SF-268 CNS
# HOP-18 NSCLC = system: HOP-18 NSCLC
# HOP-92 NSCLC = system: HOP-92 NSCLC
# NCI-H460 lung = system: NCI-H460 lung
# SK-MEL-28 melanoma = system: SK-MEL-28 melanoma
# EKVX NSCLC = system: EKVX NSCLC
# IGROV1 ovarian = system: IGROV1 ovarian
# M19-MEL melanoma = system: M19-MEL melanoma
# UACC-257 melanoma = system: UACC-257 melanoma
# DMS 273 small cell lung = system: DMS 273 small cell lung
# NCI-H226 lung = system: NCI-H226 lung
# OVCAR-5 ovarian = system: OVCAR-5 ovarian
# HOP-62 NSCLC = system: HOP-62 NSCLC
# CAKI-1 renal = system: CAKI-1 renal
# OVCAR-4 ovarian = system: OVCAR-4 ovarian
# HCC-2998 colon = system: HCC-2998 colon
# COLO 205 colon = system: COLO 205 colon
# DMS 114 small cell lung = system: DMS 114 small cell lung
smiles,measurement,setting,value
CCC(=O)CC(=O)CCC(=O)Nc1cc(C)ccc1C,TGI,LOX IMVI melanoma,> 100 µM
same,TGI,HL-60(TB) leukemia,> 100 µM
same,TGI,786-0 renal,> 100 µM
same,TGI,HT29 colon,> 100 µM
same,TGI,A549 NSCLC,> 100 µM
same,TGI,UO-31 renal,> 100 µM
same,TGI,XF 498 CNS,> 100 µM
same,TGI,RXF 393 renal,> 100 µM
same,TGI,OVCAR-8 ovarian,> 100 µM
same,TGI,A498 renal,> 100 µM
same,TGI,TK-10 renal,> 100 µM
same,TGI,UACC-62 melanoma,> 100 µM
same,TGI,SK-MEL-5 melanoma,> 100 µM
same,TGI,KM20L2 colon,> 100 µM
same,TGI,SK-MEL-2 melanoma,> 100 µM
same,TGI,K-562 leukemia,> 100 µM
same,TGI,SF-539 CNS,> 100 µM
same,TGI,U251 CNS,> 100 µM
same,TGI,SNB-78 CNS,> 100 µM
same,TGI,LXFL 529 NSCLC,> 100 µM
same,TGI,NCI-H23 lung,> 100 µM
same,TGI,OVCAR-3 ovarian,> 100 µM
same,TGI,SNB-19 CNS,> 100 µM
same,TGI,DLD-1 colon,> 100 µM
same,TGI,SF-295 CNS,> 100 µM
same,TGI,KM12 colon,> 100 µM
same,TGI,SNB-75 CNS,> 100 µM
same,TGI,HCT-116 colon,> 100 µM
same,TGI,SR leukemia,> 100 µM
same,TGI,RPMI-8226 leukemia,> 100 µM
same,TGI,CCRF-CEM leukemia,> 100 µM
same,TGI,MOLT-4 leukemia,> 100 µM
same,TGI,SK-OV-3 ovarian,> 100 µM
same,TGI,M14 melanoma,> 100 µM
same,TGI,ACHN renal,> 100 µM
same,TGI,HCT-15 colon,> 100 µM
same,TGI,MALME-3M melanoma,> 100 µM
same,TGI,SW-620 colon,> 100 µM
same,TGI,SN12C renal,> 100 µM
same,TGI,NCI-H522 lung,> 100 µM
same,TGI,SF-268 CNS,> 100 µM
same,TGI,HOP-18 NSCLC,> 100 µM
same,TGI,HOP-92 NSCLC,> 100 µM
same,TGI,NCI-H460 lung,> 100 µM
same,TGI,SK-MEL-28 melanoma,> 100 µM
same,TGI,EKVX NSCLC,> 100 µM
same,TGI,IGROV1 ovarian,> 100 µM
CC(=O)CCn1ncc(Cl)c(Cl)c1=O,TGI,LOX IMVI melanoma,30.5 µM
same,TGI,HL-60(TB) leukemia,63.2 µM
same,TGI,786-0 renal,54.9 µM
same,TGI,HT29 colon,34.1 µM
same,TGI,M19-MEL melanoma,17.2 µM
same,TGI,A549 NSCLC,44.6 µM
same,TGI,UACC-257 melanoma,31.5 µM
same,TGI,UO-31 renal,34.6 µM
same,TGI,DMS 273 small cell lung,32 µM
same,TGI,NCI-H226 lung,31.7 µM
same,TGI,XF 498 CNS,35.5 µM
same,TGI,RXF 393 renal,32.9 µM
same,TGI,OVCAR-8 ovarian,54.9 µM
same,TGI,A498 renal,42.9 µM
same,TGI,TK-10 renal,> 100 µM
same,TGI,UACC-62 melanoma,33.3 µM
same,TGI,SK-MEL-5 melanoma,33.5 µM
same,TGI,OVCAR-5 ovarian,33.2 µM
same,TGI,KM20L2 colon,36.2 µM
same,TGI,SK-MEL-2 melanoma,28.4 µM
same,TGI,K-562 leukemia,18.5 µM
same,TGI,SF-539 CNS,38.5 µM
same,TGI,HOP-62 NSCLC,35.4 µM
same,TGI,SNB-78 CNS,43 µM
same,TGI,LXFL 529 NSCLC,27.3 µM
same,TGI,NCI-H23 lung,32.6 µM
same,TGI,OVCAR-3 ovarian,27.5 µM
same,TGI,CAKI-1 renal,3.66 µM
same,TGI,SNB-19 CNS,32.9 µM
same,TGI,DLD-1 colon,29.9 µM
same,TGI,SF-295 CNS,33.6 µM
same,TGI,KM12 colon,41.5 µM
same,TGI,SNB-75 CNS,72 µM
same,TGI,OVCAR-4 ovarian,21.9 µM
same,TGI,HCT-116 colon,27.9 µM
same,TGI,SR leukemia,31.5 µM
same,TGI,RPMI-8226 leukemia,> 100 µM
same,TGI,CCRF-CEM leukemia,> 100 µM
same,TGI,MOLT-4 leukemia,> 100 µM
same,TGI,M14 melanoma,29.7 µM
same,TGI,ACHN renal,30.9 µM
same,TGI,HCT-15 colon,20.5 µM
same,TGI,MALME-3M melanoma,36.2 µM
same,TGI,SW-620 colon,39 µM
same,TGI,SN12C renal,27.9 µM
same,TGI,SF-268 CNS,28 µM
same,TGI,HOP-18 NSCLC,30.5 µM
same,TGI,HOP-92 NSCLC,34.1 µM
same,TGI,NCI-H460 lung,42.2 µM
same,TGI,HCC-2998 colon,21.9 µM
same,TGI,SK-MEL-28 melanoma,27.2 µM
same,TGI,EKVX NSCLC,36.1 µM
same,TGI,IGROV1 ovarian,35.9 µM
O=c1sc2ccccc2n1CC1CS1 (centres undefined),TGI,LOX IMVI melanoma,> 100 µM
same,TGI,HL-60(TB) leukemia,> 100 µM
same,TGI,HT29 colon,> 100 µM
same,TGI,M19-MEL melanoma,> 100 µM
same,TGI,A549 NSCLC,> 100 µM
same,TGI,COLO 205 colon,> 100 µM
same,TGI,UO-31 renal,> 100 µM
same,TGI,DMS 273 small cell lung,> 100 µM
same,TGI,NCI-H226 lung,> 100 µM
same,TGI,XF 498 CNS,> 100 µM
same,TGI,RXF 393 renal,> 100 µM
same,TGI,OVCAR-8 ovarian,> 100 µM
same,TGI,TK-10 renal,> 100 µM
same,TGI,UACC-62 melanoma,> 100 µM
same,TGI,OVCAR-5 ovarian,> 100 µM
same,TGI,KM20L2 colon,> 100 µM
same,TGI,SK-MEL-2 melanoma,> 100 µM
same,TGI,K-562 leukemia,> 100 µM
same,TGI,SF-539 CNS,> 100 µM
same,TGI,HOP-62 NSCLC,> 100 µM
same,TGI,OVCAR-3 ovarian,> 100 µM
same,TGI,CAKI-1 renal,> 100 µM
same,TGI,SNB-19 CNS,> 100 µM
same,TGI,SF-295 CNS,> 100 µM
same,TGI,KM12 colon,> 100 µM
same,TGI,OVCAR-4 ovarian,> 100 µM
same,TGI,HCT-116 colon,> 100 µM
same,TGI,SR leukemia,> 100 µM
same,TGI,RPMI-8226 leukemia,> 100 µM
same,TGI,CCRF-CEM leukemia,> 100 µM
same,TGI,MOLT-4 leukemia,> 100 µM
same,TGI,SK-OV-3 ovarian,> 100 µM
same,TGI,M14 melanoma,> 100 µM
same,TGI,ACHN renal,> 100 µM
same,TGI,HCT-15 colon,> 100 µM
same,TGI,MALME-3M melanoma,> 100 µM
same,TGI,DMS 114 small cell lung,> 100 µM
same,TGI,SW-620 colon,> 100 µM
same,TGI,SN12C renal,> 100 µM
same,TGI,NCI-H522 lung,> 100 µM
same,TGI,SF-268 CNS,> 100 µM
same,TGI,HOP-92 NSCLC,> 100 µM
same,TGI,NCI-H460 lung,> 100 µM
same,TGI,HCC-2998 colon,> 100 µM
same,TGI,SK-MEL-28 melanoma,> 100 µM
same,TGI,EKVX NSCLC,> 100 µM
same,TGI,IGROV1 ovarian,> 100 µM
O=C1CCC(Cl)=CC2CCCN12 (centres undefined),TGI,LOX IMVI melanoma,> 100 µM
same,TGI,HL-60(TB) leukemia,> 100 µM
same,TGI,786-0 renal,> 100 µM
same,TGI,HT29 colon,> 100 µM
same,TGI,M19-MEL melanoma,> 100 µM
same,TGI,A549 NSCLC,> 100 µM
same,TGI,COLO 205 colon,> 100 µM
same,TGI,UACC-257 melanoma,> 100 µM
same,TGI,UO-31 renal,> 100 µM
same,TGI,NCI-H226 lung,> 100 µM
same,TGI,RXF 393 renal,> 100 µM
same,TGI,OVCAR-8 ovarian,> 100 µM
same,TGI,A498 renal,> 100 µM
same,TGI,TK-10 renal,> 100 µM
same,TGI,UACC-62 melanoma,> 100 µM
same,TGI,SK-MEL-5 melanoma,> 100 µM
same,TGI,OVCAR-5 ovarian,> 100 µM
same,TGI,KM20L2 colon,> 100 µM
same,TGI,SK-MEL-2 melanoma,> 100 µM
same,TGI,K-562 leukemia,> 100 µM
same,TGI,SF-539 CNS,> 100 µM
same,TGI,HOP-62 NSCLC,> 100 µM
same,TGI,U251 CNS,> 100 µM
same,TGI,SNB-78 CNS,> 100 µM
same,TGI,LXFL 529 NSCLC,> 100 µM
same,TGI,NCI-H23 lung,> 100 µM
same,TGI,CAKI-1 renal,> 100 µM
same,TGI,SNB-19 CNS,> 100 µM
same,TGI,DLD-1 colon,> 100 µM
same,TGI,SNB-75 CNS,> 100 µM
same,TGI,HCT-116 colon,> 100 µM
same,TGI,RPMI-8226 leukemia,> 100 µM
same,TGI,MOLT-4 leukemia,> 100 µM
same,TGI,SK-OV-3 ovarian,> 100 µM
same,TGI,M14 melanoma,> 100 µM
same,TGI,ACHN renal,> 100 µM
same,TGI,HCT-15 colon,> 100 µM
same,TGI,MALME-3M melanoma,> 100 µM
same,TGI,DMS 114 small cell lung,> 100 µM
same,TGI,SW-620 colon,> 100 µM
same,TGI,SN12C renal,> 100 µM
same,TGI,HOP-92 NSCLC,> 100 µM
same,TGI,NCI-H460 lung,> 100 µM
same,TGI,HCC-2998 colon,> 100 µM
same,TGI,SK-MEL-28 melanoma,> 100 µM
same,TGI,EKVX NSCLC,> 100 µM
same,TGI,IGROV1 ovarian,> 100 µM
